Values quoted from earlier work as cited in patent US7229642B2, “Amino acid modulated extended release dosage form” (Scolr, Inc., priority 1999, dated 2007).
Where two headings read alike, the source gives them in different places.

Conditions: for HYDROPHOBIC VALUE: hydropathy scale of Pliska et al., J. Chromatog. 216, 79, 1981, glycine = 0; for CHARACTERIZATION (hydropathy): hydropathy characteristic in words

| HYDROPHOBIC VALUE | CHARACTERIZATION (hydropathy) | CHARACTERIZATION (hydropathy) (listed as iso-leucine) | CHARACTERIZATION (hydropathy) (listed as glycine) | Structure (SMILES) |
| --- | --- | --- | --- | --- |
| −0.27 | Weakly Hydrophilic | – | – | C[C@@H](O)[C@H](N)C(=O)O [Threonine] |
| 1.32 | – | – | – | CC(C)[C@H](N)C(=O)O [Valine] |
| −0.63 | – | – | – | N[C@@H](CO)C(=O)O [Serine] |
| 1.83 | Strongly Hydrophobic | strongly hydrophobic | – | CC[C@H](C)[C@H](N)C(=O)O [Isoleucine] |
| 1.10 | Moderately Hydrophobic | – | – | CSCC[C@H](N)C(=O)O [Methionine] |
| 0.76 | – | – | – | N[C@@H](CS)C(=O)O [Cysteine] |
| 0.35 | – | – | – | C[C@H](N)C(=O)O [Alanine] |

Further lines, the molecule ahead of its results:

| Structure (SMILES) | HYDROPHOBIC VALUE | CHARACTERIZATION (hydropathy) | CHARACTERIZATION (hydropathy) (listed as iso-leucine) | CHARACTERIZATION (hydropathy) (listed as glycine) |
| --- | --- | --- | --- | --- |
| O=C(O)[C@@H]1CCCN1 [Proline] | 0.84 | – | – | – |
| N[C@@H](Cc1c[nH]cn1)C(=O)O [Histidine] | −0.65 | – | – | – |
| NCCCC[C@H](N)C(=O)O [Lysine] | −1.54 | – | – | – |
| NCC(=O)O [Glycine] | 0 | Neutral, Balanced | – | neutral |
| N[C@@H](CC(=O)O)C(=O)O [Aspartic acid] | −2.15 | strongly hydrophilic | – | – |
| N[C@@H](Cc1ccc(O)cc1)C(=O)O [Tyrosine] | 0.39 | Weakly Hydrophobic | – | – |
| NC(=O)C[C@H](N)C(=O)O [Asparagine] | −0.99 | – | – | – |
| N[C@@H](Cc1ccccc1)C(=O)O [Phenylalanine] | 1.69 | – | – | – |
| N[C@@H](Cc1c[nH]c2ccccc12)C(=O)O [Tryptophan] | 1.35 | – | – | – |
